“And” between values parts separate entries of the source, which are not always exact repeats. Equal entries are not always repeated.
How the values were obtained:
α-secretase = experiment: Increase of α-secretase activity (sAPPα amount, western blot densitometry, W4 cell line); assay type: cell-based; settings: positive control, final concentration 1 mM, W4 cells, negative control average = 100.0
Protocol: To study the effect of 70% methanol solution fraction obtained from Example 2 on the above-mentioned APP process, an experiment was conducted as follows using W4 cell line which produces APP in large amount.
The cells of W4 cell line were treated with 70% methanol solution fraction and then cultured for about 12 hours.

[1] = tested on: rats treated with scopolamine; experiment: Passive avoidance test, scopolamine-induced memory impairment; assay type: in vivo, rat; settings: oral, 30 mg/L; untreated control = 100%, scopolamine group = 0%
Excerpt: The experimental device used was a shuttle box 50 cm (W)×15 cm (L)×40 cm (H). The shuttle box was divided into two rooms via a guillotine door, where one room was a light room provided with illumination while the other room was a dark room covered entirely with a black cloth thereby allowing the difference in illuminating effect. First, a rat was placed in the light room and the guillotine door was opened while the light was being turned on. Then, the rat entered the dark room within 20 seconds to seek a dark place by instinct and as soon as the rat entered the dark room the guillotine door was closed. […] The next day, the above trained rats were placed again into the light room with the light on and allowed to enter the dark room. Here, the rats were subject to an electric shock of 0.8 mA for 3 seconds via an electronic grid installed on the bottom of the room. Twenty four hours after the above acquisition trial, the rats were again placed into the light room with the light on and allowed to enter the dark room. Here, the normal rats hesitated to enter the dark room by remembering the electric shock of the previous day. The latency time was measured by setting up the maximum latency time at 300 seconds. […]

Structure (SMILES): CCCC(=O)O[C@@H]1[C@@H](C)[C@@]2(O)[C@@H](C=C(CO)C[C@]3(O)C(=O)C(C)=C[C@@H]23)[C@@H]2C(C)(C)[C@]12OC(=O)CCC [PDBu, Phorbol 12,13-dibutyrate]
- Relative Density (sAPPα), Average (α-secretase; average of 3 trials): 289.3
- Relative Density (sAPPα) (α-secretase; individual trials): 226.5 and 314.1 and 327.2

Structure (SMILES): Nc1c2c(nc3ccccc13)CCCC2 [tacrine]
- prevention of memory impairment [1]: 35%

Source: patent publication US7919127B2, “Pulsatilla spp. extracts effective in brain function” (priority 2005, dated 2011)
